# In patent US5714347A (priority 1995, dated 1998):
# Read-outs that look alike come from different tables or passages of the source.
# How the values were obtained:
# [1] = test system: rabbit reticulocyte ubiquitin activating enzyme (E1); settings: cited from earlier work
# [2] = test system: A549 human lung carcinoma cell extract; test: In vitro conjugation of 125I-UCRP to cellular proteins; assay type: biochemical; settings: for inhibition of 125I-UCRP conjugation by excess unlabeled protein: isotope dilution, parallel incubations
# Experimental: Confluent monolayer cultures of A549 human lung carcinoma cells were grown in Dulbecco's modified Eagle's medium supplemented with 10% (v/v) heat-inactivated fetal bovine serum. Cultures were maintained at 37° C. in a humidified 5% CO2 atmosphere. Cultures of A549 cells were induced by adding IFNβ to a final concentration of 1000 IU/ml (Loeb, K. R. and Haas, A. L., supra, 1992). Following 24 hours induction, cells were rinsed twice with PBS then harvested by scraping directly into 50 mM Tris-Cl (pH 7.6) containing 2 mMATP, 10 mM MgCl2, and 1 mM DTT (100 μl/100 mm plate). The cells were then briefly sonicated and the extracts used without further fractionation.
# [3] = target: T1, ubiquitin activating enzyme (E1) (Oryctolagus cuniculus, UniProt Q29504); test: Stoichiometry and kinetics of E1-bound adenylate formation (TCA-precipitable radioactivity with [2,8-3H]ATP); assay type: biochemical; settings: for [3H]adenylate formation: 1 pmol of E1, inorganic pyrophosphatase
# T1 construct: from rabbit reticulocytes, rabbit liver, and human erythrocytes; from tissue; host or cells: rabbit reticulocytes (inferred for this assay)
# T1 sequence (Q29504 1-1058): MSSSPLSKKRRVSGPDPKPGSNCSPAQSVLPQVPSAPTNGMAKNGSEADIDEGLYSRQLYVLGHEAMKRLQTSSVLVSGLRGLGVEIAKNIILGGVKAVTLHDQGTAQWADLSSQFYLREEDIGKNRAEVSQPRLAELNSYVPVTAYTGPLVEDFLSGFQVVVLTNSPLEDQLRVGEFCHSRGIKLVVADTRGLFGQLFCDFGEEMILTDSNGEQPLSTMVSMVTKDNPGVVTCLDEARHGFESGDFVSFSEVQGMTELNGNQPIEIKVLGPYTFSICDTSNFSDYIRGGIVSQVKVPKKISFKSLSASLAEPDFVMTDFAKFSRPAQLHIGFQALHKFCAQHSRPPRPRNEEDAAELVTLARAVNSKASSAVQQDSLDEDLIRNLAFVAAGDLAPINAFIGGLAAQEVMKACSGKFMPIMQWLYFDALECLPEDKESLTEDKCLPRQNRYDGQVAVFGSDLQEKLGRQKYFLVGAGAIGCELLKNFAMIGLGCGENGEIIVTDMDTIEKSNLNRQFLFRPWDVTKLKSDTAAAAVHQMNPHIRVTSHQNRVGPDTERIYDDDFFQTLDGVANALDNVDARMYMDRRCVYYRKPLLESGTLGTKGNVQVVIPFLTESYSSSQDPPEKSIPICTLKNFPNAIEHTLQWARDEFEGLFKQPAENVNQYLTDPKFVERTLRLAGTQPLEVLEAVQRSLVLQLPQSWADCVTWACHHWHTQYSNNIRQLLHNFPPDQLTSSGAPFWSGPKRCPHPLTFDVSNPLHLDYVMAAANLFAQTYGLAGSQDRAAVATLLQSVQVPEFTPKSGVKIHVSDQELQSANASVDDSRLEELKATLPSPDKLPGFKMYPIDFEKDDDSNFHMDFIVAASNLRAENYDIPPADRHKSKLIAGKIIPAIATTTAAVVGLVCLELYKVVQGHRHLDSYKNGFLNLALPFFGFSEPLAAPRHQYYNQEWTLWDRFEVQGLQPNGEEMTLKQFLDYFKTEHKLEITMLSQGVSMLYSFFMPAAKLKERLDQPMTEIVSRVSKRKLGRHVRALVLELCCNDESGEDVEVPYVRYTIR
# Excerpt: Recent studies by Burch and Haas have shown that mutagenesis of specific ubiquitin residues sufficiently compromises binding of the resulting adenylate within the E1 active site to allow dissociation of the intermediate (Burch, T. J. and Haas, A. L., supra, 1994). The free but not the bound pool of ubiquitin [^3 H]adenylate is sensitive to cleavage by ubiquitin carboxyl terminal hydrolase (Burch, T. J. and Haas, A. L., supra, 1994; Pickart, C. M. and Rose, I. A., J. Biol. Chem. 260:7903-7910,1985).
# [4] = test system: periplasmic carboxypeptidase in E. coli BL21 (DE3) extracts; assay type: biochemical
# Experimental: The pI shift upon incubation of ubiquitin with carboxypeptidase B was used as a convenient assay to test for carboxyl terminal glycine dipeptide processing in E. coli BL21 (DE3) extracts.
# We tested a variety of metal salts for the ability to inhibit ubiquitin inactivation.
# [5] = test system: rabbit reticulocyte ubiquitin activating enzyme (E1); assay type: biochemical
# Experimental: The incorporation of ^32 PPi into ATP was measured by adsorbing the resulting ^32 P-labeled ATP onto charcoal and counting the bound radioactivity by Cerenkov radiation (Haas, A. L. and Rose, I. A., supra, 1982). Nonspecifically-bound ^32 PPi was corrected by subtracting radioactivity in control incubations conducted in the absence of added E1 (Haas, A. L. and Rose, I. A., supra, 1982).
# Since these measurements were conducted in the absence of added AMP, the kinetic constants reflect step 3 of the E1 reaction involving formation of the final ternary complex (Haas, A. L. and Rose, I. A. J. Biol. Chem., .supra, 1982).
# [6] = test system: A549 human lung carcinoma cell extract; settings: previous preparations, Loeb and Haas 1992; Loeb 1993; cited from earlier work
# carboxypeptidase B = test: pI shift assay (isoelectric focusing after carboxypeptidase B) for intact carboxyl terminal glycine dipeptide
# Excerpt: Previous work has shown that the carboxyl terminal glycine dipeptide of ubiquitin is acutely sensitive to cleavage by trypsin-like activities (Haas, A. L., et al., J. Biol. Chem. 260:4694-4703, 1985; Wilkinson, K. D. and Audhya, T. K., J. Biol. Chem. 256:9235-9241, 1981). […] The specificity of carboxypeptidase B for lysine and arginine precludes a similar pI shift for intact ubiquitin in which R74 is masked by the glycine dipeptide (Haas, A. L., et al., supra, 1985).
molecule,measurement,setting,value
"pure intact native UCRP: Pure intact native UCRP, K1/2 from Narasimhan et al. 1996",K1/2,"[1]; pure intact native UCRP, Narasimhan et al. 1996 in press",24 µM
ubiquitin,K1/2,"[1]; step 3 of ubiquitin-supported reaction, values taken from Haas and Rose 1982",1.2 µM
same,substrate inhibition,"[1]; ubiquitin at high concentrations, Haas and Rose 1982",pronounced substrate inhibition
same,kcat,"[1]; ubiquitin-supported reaction, values taken from Haas and Rose 1982",9.6 s⁻¹
same,inhibition of 125I-UCRP conjugation by excess unlabeled protein,[2],not
same,first order rate constant of [3H]adenylate formation,[3],≥ 6 min⁻¹
same,[3H]adenylate formation,[3]; within a 1 minute incubation,equivalent amount
[Cl][Hg][Cl] [HgCl2],inhibiting UCRP inactivation,[4],effective
ubiquitin cross-reactive protein [UCRP],inhibition of 125I-UCRP conjugation by excess unlabeled protein,[2],marked inhibition
same,K1/2,[5],24 µM
same,substrate inhibition,[5],no substrate inhibition
same,first order rate constant of [3H]adenylate formation,[3],0.42 min⁻¹
same,[3H]adenylate formation,[3]; after 5 minutes,0.11 pmol
O=C(O)CN(CCN(CC(=O)O)CC(=O)O)CC(=O)O [EDTA],rate of ubiquitin inactivation,[4],stimulated
[Cl-].[Cl-].[Co+2] [CoCl2],ubiquitin and UCRP glycine dipeptide excision,[4]; 5 mM,quantitatively blocks
same,inhibiting ubiquitin inactivation,[4]; among the metal salts tested,most effective
"^125 I-UCRP: Intact UCRP isolated in the presence of CoCl2, labeled with 125I",dependence of conjugation on ATP and ATP regenerating system,[2]; both extracts,absolutely dependent
same,rate of conjugation to cellular proteins,"[2]; extracts from A549 cultures induced 24 hours with 1000 IU/ml interferon-β (+IFN), versus uninduced",significantly greater
same,rate of conjugation to cellular proteins,"[2]; extracts from uninduced cells (-IFN), 90 minutes incubation",low but measurable rate
"recombinant ^125 I-UCRP: Radioiodinated recombinant UCRP of the previous, proteolytically inactivated preparations",conjugation when added to fresh extracts of A549 cells,[6],unable to demonstrate conjugation
[Cl][Cd][Cl] [CdCl2],inhibiting UCRP inactivation,[4],effective
UCRP generated from UCRP-R: Intact UCRP resulting from removal of the arginine cap of purified UCRP-R,K1/2,"[5]; UCRP 5 to 50 μM, 20 nM E1, 37° C., absence of added AMP (step 3)",24 µM
same,pI shift upon incubation with carboxypeptidase B,carboxypeptidase B,absence of a pI shift
